According to US20240358721A1, “GASDERMIN-D INHIBITORS AND USES THEREOF FOR TREATING PULMONARY VASO-OCCLUSION” (UNIVERSITY OF PITTSBURGH-OF THE COMMONWEALTH SYSTEM OF …, priority 2021, published 2024):
Entries after “also recorded” stand apart in the source; their conditions may differ. Where a SMILES comes first, the peptide text is derived from it. The star is where a group is joined. Cbz = O=C(OCc1ccccc1)*; CH2F = FC*

Assays:
Format in all cases: in vivo, mouse
SCD-Selp−/− mice [1] = assay: qFILM assessment of P-selectin-independent pulmonary vaso-occlusion in SCD-Selp−/− mice IV administered oxy-Hb; conditions: IV 10 μmole/kg oxy-Hb with 10 mg/kg inhibitor vs oxy-Hb alone
Source text: (§1) Quantitative fluorescence intravital lung microscopy (qFILM) was used to assess the absence or presence of platelet-neutrophil aggregate mediated pulmonary vaso-occlusion. Pulmonary microcirculation (pseudo-colored purple), neutrophils (red) and platelets (pseudo-colored green) were labeled in vivo by IV administration of FITC dextran, AF546-anti-Ly6G Ab and V450-anti-CD49b Ab, respectively. […] White arrows denote the direction of blood flow within the pulmonary arterioles. Alveoli are marked with asterisks. Scale bars 20 μm. The diameter of pulmonary arteriole in B-E is ˜22 μm, 32 μm, 31.5 μm, and 31 μm, respectively. […] Refer Online Data Supplement for details. […] The data for mice with SCD IV administered 10 oxy-Hb (n=5 mice; 75 FOVs) are included as black bars in FIGS. 1N and 1O for relative comparison. qFILM FOV size ˜65 536 μm^2. Data represent mean ±SE and are compared using Student t test. *P<0.05 (FIG. 1P) Schematic showing the main findings of the study. The sterile inflammatory milieu (DAMPs, IFN-I signaling, and ROS) in SCD promotes caspase-4 (humans) or caspase-11 (mouse)-dependent cleavage of neutrophil GSDMD into the active form GSDMD-NT, leading to the shedding of NETs in the liver microcirculation. Once shed, these NETs are carried by the blood as cNETs to the lung, where they promote neutrophil-platelet aggregation in the pulmonary arterioles, leading to PVO and lung injury (acute chest syndrome).
SCD-Selp^−/− mice were IV administered 10 μmole/kg oxy-Hb (10 oxy-Hb) without or with 10 mg/kg GSDMD inhibitor (Disulfiram). Quantitative fluorescence intravital lung microscopy (qFILM) was used to assess the absence or presence of pulmonary vasoocclusion using the same experimental scheme described in FIG. 1A. Pulmonary vasoocclusions (PVOs) were compared between treatment groups using following two parameters: Number of PVOs per Field of View (#PVOs/FOV) and number of large PVOs (with area>1000 μm^2) per FOV. […] The data for SCD mice IV administered 10 oxy-Hb (n=5 mice; 75 FOVs) is included as black bars in FIGS. 4A and 4B for relative comparison. FOV size˜65,536 μm^2. […]
(§2) (FIG. 5A) Experimental scheme: SCD or SCD-Selp^−/− mice were IV administered 10 μmole/kg oxy-Hb (10 oxy-Hb) without or with 10 mg/kg GSDMD inhibitors LDC75591 or Disulfiram. In FIGS. 5C-5D, venous blood was processed to generate PPP and cNETs detected in PPP using Imaging Flow Cytometry. Imaging Flow Cytometry data was quantified to estimate concentration of cNETs (#cNETs/μl of plasma). In FIGS. 5B, and 5E-5F, quantitative fluorescence intravital lung microscopy (qFILM) was used to detect arrival of circulating NETs (cNETs) within the lung microcirculation. Number of cNETs entering per FOV over a 1-minute duration (#cNETs/FOV/min) were quantified. […]

SCD-Selp−/− mice [2] = assay: qFILM detection of circulating NETs arriving in the lung microcirculation, SCD-Selp−/− mice; conditions: IV 10 μmole/kg oxy-Hb with 10 mg/kg inhibitor vs oxy-Hb alone, significant
Experimental: as §2, with “quantified. In FIGS. 5G-5J, qFILM was used to assess the absence or presence of pulmonary vaso-occlusion using the experimental strategy described in FIG. 1A. Pulmonary vaso-occlusions (PVOs) were compared between treatment groups using following two parameters: Number of PVOs per Field of View (#PVOs/FOV) and number of large PVOs (with area>1000 μm^2) per FOV.” for “quantified.”
Quantitative fluorescence intravital lung microscopy (qFILM) has been used widely for in vivo assessment of pulmonary vasoocclusion in mice with SCD [Bennewitz M F et al., (2017); Vats R, Brzoska T, Bennewitz M F, et al. (2020); Vats R, Tutuncuoglu E, Pradhan-Sundd T, Tejero J, Shaw G D, Sundd P. (2020); Bennewitz M F, Tutuncuoglu E, Gudapati S, et al. (2020)] […]

SCD mice = assay: qFILM assessment of pulmonary vaso-occlusion in SCD mice IV administered oxy-Hb; conditions: LDC7559 10 mg/kg, Z-VAD-FMK 0.004 μmol/kg; for Number of PVOs per Field of View (#PVOs/FOV) / number of large PVOs (with area>1000 μm^2) per FOV: IV 10 μmole/kg oxy-Hb with inhibitor vs oxy-Hb alone; for Number of PVOs per Field of View (#PVOs/FOV) / number of large PVOs (with area>1000 μm^2) per FOV / blood flow in the lung (rapidly transiting erythrocytes) / lung vaso-occlusion in representative qFILM images: NSA 20 mg/kg; for blood flow in the lung (rapidly transiting erythrocytes) / lung vaso-occlusion in representative qFILM images / large neutrophil-platelet aggregates occluding the arteriolar bottle-necks in the lung: IV 10 μmole/kg oxy-Hb with inhibitor; for large neutrophil-platelet aggregates occluding the arteriolar bottle-necks in the lung: Necrosulfonamide 20 mg/kg
Source text: as §1
Intravital lung microscopy (experimental scheme shown in FIG. 1A) was conducted in live mice to assess whether preventing liver-to-lung embolization of cNETs by inhibiting or deleting GSDMD-signaling leads to amelioration of pulmonary vaso-occlusion. Although large neutrophil-platelet aggregates (marked with dotted ellipses) were seen occluding the arteriolar bottle-necks, leading to impaired blood flow in the lung of SCD mice IV administered 10 μmole/kg oxy-Hb (FIG. 1B), such aggregates were rare in the lung of SCD mice IV administered 10 μmole/kg oxy-Hb with 0.004 μmol/kg pan-caspase inhibitor Z-VAD-FMK (FIG. 1C) or 10 mg/kg GSDMD-NT inhibitor LDC7559 (FIG. 1D) or 20 mg/kg GSDMD-NT inhibitor Necrosulfonamide (FIG. 1E). […] The twofold higher dose of 20 μmole/kg IV oxy-Hb also led to the development of lung vaso-occlusion in WT but not Gsdmd^−/− mice (FIG. 2). […] P-selectin deficiency led to an approximately 50% reduction in pulmonary vaso-occlusion in SCD-Selp^−/− mice administered 10 μmole/kg IV oxy-Hb (FIG. 3), however, IV administration of oxy-Hb with GSDMD-NT inhibitor (LDC7559) led to further threefold (significant) reduction in pulmonary vaso-occlusions per FOV (FIGS. 1N and 4A, and FIG. 5) and absence of large pulmonary vaso-occlusions (area>1000 μm^2) per FOV (FIG. 10) in SCD-Selp^−/− mice.
Quantitative fluorescence intravital lung microscopy (qFILM) has been used widely for in vivo assessment of pulmonary vasoocclusion in mice with SCD [Bennewitz M F et al., (2017); Vats R, Brzoska T, Bennewitz M F, et al. (2020); Vats R, Tutuncuoglu E, Pradhan-Sundd T, Tejero J, Shaw G D, Sundd P. (2020); Bennewitz M F, Tutuncuoglu E, Gudapati S, et al. (2020)] In the current study, qFILM was used to assess pulmonary vaso-occlusion and detect NETs in the intact lung microcirculation of live mice following IV challenge with saline, oxy-hemoglobin (oxy-Hb), hemin, or lipo-polysaccharide with or without pretreatment with N-terminus active domain (GSDMD-NT) inhibitors LDC7559 [Sollberger G, Choidas A, Burn G L, et al. (2018)], NSA [Rathkey J K, Zhao J, Liu Z, et al. (2018)], Disulfiram [Hu J J, Liu X, Xia S, et al. (2020)], or the pan-caspase inhibitor Z-VAD-FMK [Sollberger G, Choidas A, Burn G L, et al. (2018)], haptoglobin [Belcher J D, Chen C, Nguyen J, et al. (2014)], or TLR4-inhibitor (TAK242) [Belcher J D, Chen C, Nguyen J, et al. (2014)]. qFILM was conducted with a Nikon multiphoton excitation fluorescence microscope and an APO LWD 25×water immersion objective with 1.1 NA. […]

| SMILES | number of large PVOs (with area>1000 μm^2) per FOV (SCD-Selp−/− mice [1]) | Number of PVOs per Field of View (#PVOs/FOV) (SCD-Selp−/− mice [1]; 10 mg/kg) | #cNETs/FOV/min in the lung, less than 10 oxy-Hb alone (SCD-Selp−/− mice [2]) [folds] | Number of PVOs per Field of View (#PVOs/FOV) (SCD mice) | number of large PVOs (with area>1000 μm^2) per FOV (SCD mice) | Number of PVOs per Field of View (#PVOs/FOV) (SCD mice; listed as NSA) | number of large PVOs (with area>1000 μm^2) per FOV (SCD mice; listed as NSA) | blood flow in the lung (rapidly transiting erythrocytes) (SCD mice) | lung vaso-occlusion in representative qFILM images (SCD mice) | lung vaso-occlusion in representative qFILM images (SCD mice; listed as NSA) | large neutrophil-platelet aggregates occluding the arteriolar bottle-necks in the lung (SCD mice) |
| --- | --- | --- | --- | --- | --- | --- | --- | --- | --- | --- | --- |
| CCN(CC)C(=S)SSC(=S)N(CC)CC [Disulfiram, disulfiram] | absent | significantly reduced | 4 | – | – | – | – | – | – | – | – |
| COc1nccnc1NS(=O)(=O)c1ccc(NC(=O)/C=C/c2ccc([N+](=O)[O-])s2)cc1 [Necrosulfonamide, necrosulfonamide] | – | – | – | significantly reduced | significantly reduced | significantly less | significantly less | significantly improved | lack of pulmonary vaso-occlusion | absence of lung vaso-occlusion | rare |
| COC(=O)C[C@H](NC(=O)[C@H](C)NC(=O)[C@@H](NC(=O)OCc1ccccc1)C(C)C)C(=O)CF [Z-VAD-FMK] (Cbz-Val-Ala-Asp(OMe)-CH2F) | – | – | – | significantly less; also recorded: significantly reduced | significantly less; also recorded: significantly reduced | – | – | significantly improved | absence of lung vaso-occlusion; also recorded: lack of pulmonary vaso-occlusion | – | rare |
